This is an account of results in patent publication US4327097A, “Novel penicillins” (Toyama Chemical Co., Ltd., priority 1974, dated 1982).

In one data set the test system is Escherichia coli. Briefly: MIC against clinical isolates. In kind it is cell-based. The conditions noted are these: Table 5-2, clinical isolate; unit assumed.
The next data set deals with Proteus rettgeri. Put plainly: MIC against clinical isolates. In kind it is cell-based. The conditions noted are these: Table 5-6, clinical isolate; unit assumed.
The subject of another data set is Pseudomonas aeruginosa. Briefly: MIC against clinical isolates. In kind it is cell-based. The conditions noted are these: Table 5-3, clinical isolate, unit assumed.
For data set [1], the system named is Staphylococcus aureus 209p. Put plainly: MIC, plate method, standard strains. In kind it is cell-based. The conditions noted are these: Table 3, standard strain, Heart infusion agar pH 7.4; unit assumed. The method, boiled down: (§1)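 Minimum inhibitory concentrations are determined by agar plate dilution using Heart infusion agar (pH 7.4). Each plate receives an inoculum of 10^4 cells.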

Data set [2] concerns Klebsiella pneumoniae. Briefly: MIC, plate method, standard strains. In kind it is cell-based. As to conditions: Table 3, standard strain; unit assumed. Put shortly: as §1
Data set [3] concerns Pseudomonas aeruginosa I.F.O. Put plainly: MIC, plate method, standard strains. In kind it is cell-based. The conditions noted are these: Table 3, standard strain; unit assumed. The method, boiled down: as §1
In the next data set the test system is Proteus vulgaris 3027. Briefly: MIC, plate method, standard strains. It counts as cell-based. The conditions noted are these: Table 3, standard strain; unit assumed. Put shortly: as §1
Another data set concerns Escherichia coli NIHJ. Put plainly: MIC, plate method, standard strains. As to conditions: Table 3, standard strain; unit assumed. In kind it is cell-based. The method, boiled down:
as §1

A further data set deals with Salmonella typhi-murium. Briefly: MIC against clinical isolates. In kind it is cell-based. As to conditions: Table 5-5, clinical isolate; unit assumed.
A further data set has as its system Proteus vulgaris. Put plainly: MIC against clinical isolates. It counts as cell-based. The conditions noted are these: Table 5-6, clinical isolate; unit assumed.
The test system of data set [4] is β-lactamase, Pseudomonas aeruginosa GN 238. Put plainly: Resistant activity against β-lactamase, iodometric assay. It counts as biochemical. As to conditions: β-lactamase from Pseudomonas aeruginosa GN 238; Potassium Penicillin G = 100. Put shortly:
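Crude β-lactamase was the sonicated-cell supernatant from P. aeruginosa GN 238, grown 6 h at 37 °C and washed in 0.1 M phosphate pH 7.0. Compound stability to the enzyme measured iodometrically; values are relative activity with potassium penicillin G set at 100.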

A further data set deals with Staphylococcus aureus. Briefly: MIC against clinical isolates. In kind it is cell-based. The conditions noted are these: Table 5-1, clinical isolate; unit assumed.
For another data set, the system named is Proteus mirabilis. Briefly: MIC against clinical isolates. The conditions noted are these: Table 5-6, clinical isolate; unit assumed. It counts as cell-based.
For the next data set, the system named is Shigella sonnei. Briefly: MIC against clinical isolates. The conditions noted are these: Table 5-5, clinical isolate; unit assumed. It counts as cell-based. As for the experimental part:
(§2) The minimum inhibitory concentration (MIC) was determined by the plate method disclosed in "Chemotherapy" (Japan), Vol. 16, (1968), pages 98-99. The culture medium used was a Heart infusion agar (pH 7.4). The number of the cells per plate used in the inoculum was 10^4 (10^6 cells/ml).
(§3) MIC was determined in the same manner as in the preceding paragraph (1).

For the next data set, the system named is Shigella flexneri. Briefly: MIC against clinical isolates. In kind it is cell-based. The conditions noted are these: Table 5-5, clinical isolate; unit assumed. As for the experimental part: as §2, §3
Data set [5] deals with Klebsiella pneumoniae. Briefly: MIC against clinical isolates. In kind it is cell-based. As to conditions: Table 5-4, clinical isolate; unit assumed.
The next data set relates to mouse. Put plainly: Toxicity, LD50 i.v. in mouse. In kind it is in vivo. The conditions noted are these: i.v. in mouse having a weight of 19±1 g. An excerpt: The present penicillins and cephalosporins have generally low toxicity.

≈ marks a conversion by molar mass, not a printed value. Bounds are passed on as bounds.

In the data set with Escherichia coli, `CC(C)N1CCN(C(=O)NC(C(=O)NC2C(=O)N3C2SC(C)(C)C3C(=O)O)c2ccccc2)C(=O)C1=O` (single isomer, unassigned) [Compound 40] registered an MIC Escherichia coli GN 3452 of 1.57 µg/mL (≈ 2.95 µM), an MIC Escherichia coli GN 3465 of 50 µg/mL (≈ 94.1 µM), an MIC Escherichia coli GN 3481 of 1.57 µg/mL (≈ 2.95 µM) and an MIC Escherichia coli GN 3611 of over 200 µg/mL. In addition, in the data set with Escherichia coli, the MIC Escherichia coli K-1 amounted to 1.57 µg/mL (≈ 2.95 µM), the MIC Escherichia coli K-2 worked out at 3.13 µg/mL (≈ 5.89 µM) and the MIC Escherichia coli K-3 was over 200 µg/mL. Further, in the data set on Proteus rettgeri, the MIC Proteus rettgeri was 6.25 µg/mL (≈ 11.8 µM). Also, the MIC Pseudomonas aeruginosa GN with Pseudomonas aeruginosa (strain number not given) worked out at 6.25 µg/mL (≈ 11.8 µM). In the data set on Pseudomonas aeruginosa, this compound showed an MIC Pseudomonas aeruginosa GN 82 of 6.25 µg/mL (≈ 11.8 µM), an MIC Pseudomonas aeruginosa GN 163 of 6.25 µg/mL (≈ 11.8 µM), an MIC Pseudomonas aeruginosa GN 221 of 6.25 µg/mL (≈ 11.8 µM) and an MIC Pseudomonas aeruginosa GN 376 of 3.13 µg/mL (≈ 5.89 µM). In the data set on Pseudomonas aeruginosa, the MIC Pseudomonas aeruginosa GN 383 is 6.25 µg/mL (≈ 11.8 µM), the MIC Pseudomonas aeruginosa GN 1091 amounted to 6.25 µg/mL (≈ 11.8 µM) and the MIC Pseudomonas aeruginosa GN 2987 was determined as 3.13 µg/mL (≈ 5.89 µM). The same compound returned an MIC Staphylococcus aureus 209p in [1] of 0.4 µg/mL (≈ 0.752 µM). The same compound displayed an MIC Klebsiella pneumoniae in the data set with Klebsiella pneumoniae [2] of 3.13 µg/mL (≈ 5.89 µM). In data set [3], this compound gave an MIC Pseudomonas aeruginosa I.F.C of 6.25 µg/mL (≈ 11.8 µM). The MIC Proteus vulgaris 3027 against Proteus vulgaris 3027 is 0.4 µg/mL (≈ 0.752 µM). In the data set with Escherichia coli NIHJ, this compound displayed an MIC Esche--richin coil NIHJ of under 0.1 µg/mL. This compound also displayed an MIC Salmonella typhi-murium SL 2136 against Salmonella typhi-murium of over 200 µg/mL. The MIC Proteus vulgaris with Proteus vulgaris was under 0.4 µg/mL. For the same compound, in data set [4], the “Relative activity (%), resistant activity against β-lactamase” value was found to be 15%. In addition, in the data set with Staphylococcus aureus, the MIC Staphylococcus aureus F-1 is 6.25 µg/mL (≈ 11.8 µM), the MIC Staphylococcus aureus F-2 came to 3.13 µg/mL (≈ 5.89 µM), the MIC Staphylococcus aureus F-4 was found to be 6.25 µg/mL (≈ 11.8 µM) and the MIC Staphylococcus aureus F-5 is over 200 µg/mL. In the data set on Staphylococcus aureus, this compound showed an MIC Staphylococcus aureus MS 8588 of 3.13 µg/mL (≈ 5.89 µM), an MIC Staphylococcus aureus MS 8596 of 3.13 µg/mL (≈ 5.89 µM) and an MIC Staphylococcus aureus MS 8684 of 3.13 µg/mL (≈ 5.89 µM). For the same compound, the MIC Proteus mirabilis against Proteus mirabilis was under 0.4 µg/mL. For the same compound, in the data set on Shigella sonnei, the MIC Shigella sonnei JS 11232 is 50 µg/mL (≈ 94.1 µM) and the MIC Shigella sonnei JS 11755 came out at 3.13 µg/mL (≈ 5.89 µM). In the data set with Shigella flexneri, this compound gave an MIC Shigella flexneri JS 11215 of 50 µg/mL (≈ 94.1 µM) and an MIC Shigella flexneri JS 11839 of 3.13 µg/mL (≈ 5.89 µM). In the data set on Klebsiella pneumoniae [5], this compound showed an MIC Klebsiella pneumoniae GN 917 of 6.25 µg/mL (≈ 11.8 µM), an MIC Klebsiella pneumoniae GN 4081 of 100 µg/mL (≈ 188 µM) and an MIC Klebsiella pneumoniae GN 4117 of 50 µg/mL (≈ 94.1 µM).

Consider `CCN1CCN(C(=O)N[C@@H](C(=O)N[C@@H]2C(=O)N3[C@@H]2SC(C)(C)[C@@H]3C(=O)O)c2ccccc2)C(=O)C1=O`, for which the LD50 entry in the data set with mouse is “greater than 5 g/kg”.
